Source: ChEMBL document CHEMBL2440076, “New triarylpyrazoles as broad-spectrum anticancer agents: design, synthesis, and biological evaluation” (Eur J Med Chem, 2013)

Legend:
[1] = system: HCT-116; experiment: Growth inhibition of human HCT116 cells assessed as cell growth at 5X10'-5 M after 48 hrs by sulforhodamine B assay; format: functional; conditions: HCT-116, 48 h, read-out: Activity
[2] = system: TK-10; experiment: Growth inhibition of human TK10 cells after 48 hrs by sulforhodamine B assay; format: functional; conditions: TK-10, 48 h; for CC50: read-out: LC50 (the source's name)
[3] = system: HL-60(TB); experiment: Growth inhibition of human HL-60(TB) cells assessed as cell growth at 5X10'-9 M after 48 hrs by sulforhodamine B assay; format: functional; conditions: HL-60, 48 h, read-out: Activity
[4] = Growth inhibition of human NCI-ADR-RES cells after 48 hrs by sulforhodamine B assay; format: functional; conditions: for CC50: read-out: LC50 (the source's name)
[5] = system: NCI-H226; experiment: Growth inhibition of human NCI-H226 cells assessed as cell growth at 10 uM after 48 hrs by sulforhodamine B assay; format: functional; conditions: NCI-H226, 48 h, read-out: Activity
[6] = system: M14; experiment: Growth inhibition of human M14 cells assessed as cell growth at 5X10'-5 M after 48 hrs by sulforhodamine B assay; format: functional; conditions: M14, 48 h, read-out: Activity
[7] = system: HOP-62; experiment: Growth inhibition of human HOP62 cells assessed as cell growth at 5X10'-7 M after 48 hrs by sulforhodamine B assay; format: functional; conditions: HOP-62, 48 h, read-out: Activity
[8] = system: U-251; experiment: Growth inhibition of human U251 cells assessed as cell growth at 5X10'-5 M after 48 hrs by sulforhodamine B assay; format: functional; conditions: U-251, 48 h, read-out: Activity
[9] = system: SF-268; experiment: Growth inhibition of human SF268 cells assessed as cell growth at 5X10'-8 M after 48 hrs by sulforhodamine B assay; format: functional; conditions: SF-268, 48 h, read-out: Activity
[10] = system: SNB-19; experiment: Growth inhibition of human SNB19 cells assessed as cell growth at 5X10'-6 M after 48 hrs by sulforhodamine B assay; format: functional; conditions: SNB-19, 48 h, read-out: Activity
[11] = system: SF-539; experiment: Growth inhibition of human SF539 cells assessed as cell growth at 5X10'-6 M after 48 hrs by sulforhodamine B assay; format: functional; conditions: SF-539, 48 h, read-out: Activity
[12] = system: COLO 205; experiment: Growth inhibition of human COLO205 cells assessed as cell growth at 5X10'-8 M after 48 hrs by sulforhodamine B assay; format: functional; conditions: COLO 205, 48 h, read-out: Activity
[13] = system: CCRF-CEM; experiment: Growth inhibition of human CCRF-CEM cells assessed as cell growth at 10 uM after 48 hrs by sulforhodamine B assay; format: functional; conditions: read-out: Activity
[14] = system: OVCAR-3; experiment: Growth inhibition of human OVCAR3 cells after 48 hrs by sulforhodamine B assay; format: functional, cell-based; conditions: OVCAR-3, 48 h; for CC50: read-out: LC50 (the source's name)
[15] = system: NCI-H460; experiment: Growth inhibition of human NCI-H460 cells assessed as cell growth at 5X10'-7 M after 48 hrs by sulforhodamine B assay; format: functional; conditions: NCI-H460, 48 h, read-out: Activity
[16] = system: HL-60(TB); experiment: Growth inhibition of human HL-60(TB) cells after 48 hrs by sulforhodamine B assay; format: functional; conditions: HL-60, 48 h; for CC50: read-out: LC50 (the source's name)
[17] = system: RPMI-8226; experiment: Growth inhibition of human RPMI8226 cells assessed as cell growth at 5X10'-8 M after 48 hrs by sulforhodamine B assay; format: functional; conditions: RPMI-8226, 48 h, read-out: Activity
[18] = system: SF-295; experiment: Growth inhibition of human SF295 cells assessed as cell growth at 5X10'-5 M after 48 hrs by sulforhodamine B assay; format: functional; conditions: SF-295, 48 h, read-out: Activity
[19] = system: SK-MEL-5; experiment: Growth inhibition of human SK-MEL-5 cells assessed as cell growth at 5X10'-8 M after 48 hrs by sulforhodamine B assay; format: functional; conditions: SK-MEL-5, 48 h, read-out: Activity
[20] = system: SF-539; experiment: Growth inhibition of human SF539 cells assessed as cell growth at 5X10'-8 M after 48 hrs by sulforhodamine B assay; format: functional; conditions: SF-539, 48 h, read-out: Activity
[21] = system: CAKI-1; experiment: Growth inhibition of human CAKI-1 cells assessed as cell growth at 10 uM after 48 hrs by sulforhodamine B assay; format: functional; conditions: CAKI-1, 48 h, read-out: Activity
[22] = Growth inhibition of human HCC2998 cells assessed as cell growth at 5X10'-7 M after 48 hrs by sulforhodamine B assay; format: functional; conditions: HCC 2998, 48 h, read-out: Activity
[23] = system: MCF7; experiment: Growth inhibition of human MCF7 cells assessed as cell growth at 5X10'-6 M after 48 hrs by sulforhodamine B assay; format: functional; conditions: MCF7, 48 h, read-out: Activity
[24] = system: TK-10; experiment: Growth inhibition of human TK10 cells assessed as cell growth at 5X10'-9 M after 48 hrs by sulforhodamine B assay; format: functional; conditions: TK-10, 48 h, read-out: Activity
[25] = system: MOLT-4; experiment: Growth inhibition of human MOLT4 cells after 48 hrs by sulforhodamine B assay; format: functional; conditions: MOLT-4, 48 h; for CC50: read-out: LC50 (the source's name)
[26] = system: RXF 393; experiment: Growth inhibition of human RXF393 cells assessed as cell growth at 5X10'-9 M after 48 hrs by sulforhodamine B assay; format: functional; conditions: RXF 393, 48 h, read-out: Activity
[27] = system: SF-268; experiment: Growth inhibition of human SF268 cells assessed as cell growth at 5X10'-5 M after 48 hrs by sulforhodamine B assay; format: functional; conditions: SF-268, 48 h, read-out: Activity
[28] = system: OVCAR-4; experiment: Growth inhibition of human OVCAR4 cells assessed as cell growth at 5X10'-5 M after 48 hrs by sulforhodamine B assay; format: functional; conditions: OVCAR-4, 48 h, read-out: Activity
[29] = system: SF-295; experiment: Growth inhibition of human SF295 cells assessed as cell growth at 5X10'-9 M after 48 hrs by sulforhodamine B assay; format: functional; conditions: SF-295, 48 h, read-out: Activity
[30] = system: BT-549; experiment: Growth inhibition of human BT549 cells assessed as cell growth at 5X10'-9 M after 48 hrs by sulforhodamine B assay; format: functional; conditions: BT-549, 48 h, read-out: Activity
[31] = system: UACC-257; experiment: Growth inhibition of human UACC257 cells assessed as cell growth at 10 uM after 48 hrs by sulforhodamine B assay; format: functional; conditions: UACC-257, 48 h, read-out: Activity
[32] = system: RPMI-8226; experiment: Growth inhibition of human RPMI8226 cells after 48 hrs by sulforhodamine B assay; format: functional, cell-based; conditions: RPMI-8226, 48 h; for CC50: read-out: LC50 (the source's name)
[33] = system: HL-60(TB); experiment: Growth inhibition of human HL-60(TB) cells assessed as cell growth at 10 uM after 48 hrs by sulforhodamine B assay; format: functional; conditions: HL-60, 48 h, read-out: Activity
[34] = system: RXF 393; experiment: Growth inhibition of human RXF393 cells assessed as cell growth at 10 uM after 48 hrs by sulforhodamine B assay; format: functional; conditions: RXF 393, 48 h, read-out: Activity
[35] = system: SK-MEL-5; experiment: Growth inhibition of human SK-MEL-5 cells after 48 hrs by sulforhodamine B assay; format: functional; conditions: SK-MEL-5, 48 h

COc1cc(-c2nn(-c3cccc(NC(=O)Nc4cccc(C(F)(F)F)c4)c3)cc2-c2ccncc2)ccc1Cl
growth at 50 µM [1]: -16%
GI50 [2]: 1310 nM
TGI [2]: 19000 nM
CC50 [2]: > 50000 nM
growth at 0.005 µM [3]: 90%
GI50 [4]: 783 nM
TGI [4]: 3640 nM
CC50 [4]: > 50000 nM
growth at 10 µM [5]: 4.3%
growth at 50 µM [6]: -64%
growth at 0.5 µM [7]: 94%
growth at 50 µM [8]: -84%
growth at 0.05 µM [9]: 93%
growth at 5 µM [10]: -8%
growth at 5 µM [11]: -36%
growth at 0.05 µM [12]: 98%
growth at 10 µM [13]: -9.68%
GI50 [14]: 579 nM
IC50 [14]: 580 nM
TGI [14]: 1870 nM
CC50 [14]: 24700 nM
growth at 0.5 µM [15]: 64%
GI50 [16]: 1370 nM
TGI [16]: > 50000 nM
CC50 [16]: > 50000 nM
growth at 0.05 µM [17]: 97%
growth at 50 µM [18]: -77%
growth at 0.05 µM [19]: 95%
growth at 0.05 µM [20]: 94%
growth at 10 µM [21]: 11.5%
growth at 0.5 µM [22]: 94%
growth at 5 µM [23]: 2%
growth at 0.005 µM [24]: 94%
GI50 [25]: 936 nM
TGI [25]: 3480 nM
CC50 [25]: > 50000 nM
growth at 0.005 µM [26]: 100%
growth at 50 µM [27]: -34%
growth at 50 µM [28]: -3%
growth at 0.005 µM [29]: 96%
growth at 0.005 µM [30]: 98%
growth at 10 µM [31]: -52.9%
GI50 [32]: 340 nM
IC50 [32]: 340 nM
TGI [32]: 3120 nM
CC50 [32]: > 50000 nM
growth at 10 µM [33]: -18.7%
growth at 10 µM [34]: -69.8%
GI50 [35]: 720 nM
LC50 (concentration killing 50% of cells) [35]: 2680 nM
TGI [35]: 1390 nM

COc1cc(-c2nn(-c3cccc(NC(=O)Nc4cc(C(F)(F)F)cc(C(F)(F)F)c4)c3)cc2-c2ccncc2)ccc1Cl
growth at 50 µM [1]: -67%
GI50 [2]: 894 nM
TGI [2]: 2480 nM
CC50 [2]: 10100 nM
growth at 0.005 µM [3]: 100%
GI50 [4]: 1010 nM
TGI [4]: 5180 nM
CC50 [4]: > 50000 nM
growth at 10 µM [5]: 8.68%
growth at 50 µM [6]: -28%
growth at 0.5 µM [7]: 93%
growth at 50 µM [8]: -78%
growth at 0.05 µM [9]: 105%
growth at 5 µM [10]: -9%
growth at 5 µM [11]: -74%
growth at 0.05 µM [12]: 102%
growth at 10 µM [13]: -27.3%
GI50 [14]: 411 nM
IC50 [14]: 410 nM
TGI [14]: 1230 nM
CC50 [14]: 3390 nM
growth at 0.5 µM [15]: 55%
GI50 [16]: 1180 nM
TGI [16]: > 50000 nM
CC50 [16]: > 50000 nM
growth at 0.05 µM [17]: 95%
growth at 50 µM [18]: -73%
growth at 0.05 µM [19]: 95%
growth at 0.05 µM [20]: 90%
growth at 10 µM [21]: 18.5%
growth at 0.5 µM [22]: 95%
growth at 5 µM [23]: 2%
growth at 0.005 µM [24]: 94%
GI50 [25]: 1080 nM
TGI [25]: 4480 nM
CC50 [25]: > 50000 nM
growth at 0.005 µM [26]: 98%
growth at 50 µM [27]: -43%
growth at 50 µM [28]: -21%
growth at 0.005 µM [29]: 90%
growth at 0.005 µM [30]: 103%
growth at 10 µM [31]: -45.1%
GI50 [32]: 307 nM
IC50 [32]: 310 nM
TGI [32]: > 50000 nM
CC50 [32]: > 50000 nM
growth at 10 µM [33]: -20.2%
growth at 10 µM [34]: -68.1%
GI50 [35]: 694 nM
LC50 (concentration killing 50% of cells) [35]: 2670 nM
TGI [35]: 1360 nM
